Each structure is given as a SMILES string. Activity calls are given as the source filed them. A value given as a limit tells only on which side of the number the result lay.

Assay [1] addresses T1, Mannose-6-phosphate isomerase (Homo sapiens, UniProt P34949).
T1 sequence (P34949 whole entry): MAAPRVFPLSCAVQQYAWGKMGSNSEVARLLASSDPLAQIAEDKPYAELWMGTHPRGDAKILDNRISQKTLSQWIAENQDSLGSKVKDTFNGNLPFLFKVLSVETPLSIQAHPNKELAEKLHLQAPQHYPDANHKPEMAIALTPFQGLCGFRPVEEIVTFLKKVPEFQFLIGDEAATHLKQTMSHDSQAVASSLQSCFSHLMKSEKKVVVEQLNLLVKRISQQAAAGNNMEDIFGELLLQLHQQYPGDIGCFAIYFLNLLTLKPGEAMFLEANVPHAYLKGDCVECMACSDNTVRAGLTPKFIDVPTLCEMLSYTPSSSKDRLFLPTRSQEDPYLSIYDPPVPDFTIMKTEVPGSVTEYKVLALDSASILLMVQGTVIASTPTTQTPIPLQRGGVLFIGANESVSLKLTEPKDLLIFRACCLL
Description: MPI enzyme activity inhibition – biochemical, fluorescence intensity, coupled assay, primary screen (AID 1209).

In assay [2] the target is T2, Replicative DNA helicase DnaB (Mycobacterium tuberculosis, UniProt P9WMR3).
T2 sequence (P9WMR3 whole entry): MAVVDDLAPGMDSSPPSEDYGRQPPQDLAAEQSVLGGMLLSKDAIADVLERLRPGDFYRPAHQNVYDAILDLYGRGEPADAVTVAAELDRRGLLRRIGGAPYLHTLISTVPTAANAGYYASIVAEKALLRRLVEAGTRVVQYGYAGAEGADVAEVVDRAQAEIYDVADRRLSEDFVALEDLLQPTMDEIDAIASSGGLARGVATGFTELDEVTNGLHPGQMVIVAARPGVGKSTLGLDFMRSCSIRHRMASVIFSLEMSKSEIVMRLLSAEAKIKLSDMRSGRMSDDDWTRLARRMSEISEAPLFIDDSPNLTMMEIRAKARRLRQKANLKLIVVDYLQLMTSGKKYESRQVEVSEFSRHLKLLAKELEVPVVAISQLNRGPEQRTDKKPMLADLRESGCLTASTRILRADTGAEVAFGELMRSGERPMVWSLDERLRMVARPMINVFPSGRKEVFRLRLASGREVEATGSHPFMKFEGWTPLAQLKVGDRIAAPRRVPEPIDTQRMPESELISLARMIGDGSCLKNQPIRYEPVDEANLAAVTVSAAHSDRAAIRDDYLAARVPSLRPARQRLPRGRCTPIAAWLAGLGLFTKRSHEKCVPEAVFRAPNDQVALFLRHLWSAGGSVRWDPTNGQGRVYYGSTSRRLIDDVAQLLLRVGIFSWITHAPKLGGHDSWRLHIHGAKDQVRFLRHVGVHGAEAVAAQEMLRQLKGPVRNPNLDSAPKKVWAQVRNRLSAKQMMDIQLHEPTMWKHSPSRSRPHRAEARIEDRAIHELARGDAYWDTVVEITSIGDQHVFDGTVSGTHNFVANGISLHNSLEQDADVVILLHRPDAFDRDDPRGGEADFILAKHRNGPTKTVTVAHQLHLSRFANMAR
Description: DnaB intein splicing inhibitors, dose response, biochemical, cell-free fluorescence (AID 449749). In kind it is functional.

A further assay concerns the target T3, Protein RecA (Mycobacterium tuberculosis, UniProt P9WHJ3).
T3 sequence (P9WHJ3 whole entry): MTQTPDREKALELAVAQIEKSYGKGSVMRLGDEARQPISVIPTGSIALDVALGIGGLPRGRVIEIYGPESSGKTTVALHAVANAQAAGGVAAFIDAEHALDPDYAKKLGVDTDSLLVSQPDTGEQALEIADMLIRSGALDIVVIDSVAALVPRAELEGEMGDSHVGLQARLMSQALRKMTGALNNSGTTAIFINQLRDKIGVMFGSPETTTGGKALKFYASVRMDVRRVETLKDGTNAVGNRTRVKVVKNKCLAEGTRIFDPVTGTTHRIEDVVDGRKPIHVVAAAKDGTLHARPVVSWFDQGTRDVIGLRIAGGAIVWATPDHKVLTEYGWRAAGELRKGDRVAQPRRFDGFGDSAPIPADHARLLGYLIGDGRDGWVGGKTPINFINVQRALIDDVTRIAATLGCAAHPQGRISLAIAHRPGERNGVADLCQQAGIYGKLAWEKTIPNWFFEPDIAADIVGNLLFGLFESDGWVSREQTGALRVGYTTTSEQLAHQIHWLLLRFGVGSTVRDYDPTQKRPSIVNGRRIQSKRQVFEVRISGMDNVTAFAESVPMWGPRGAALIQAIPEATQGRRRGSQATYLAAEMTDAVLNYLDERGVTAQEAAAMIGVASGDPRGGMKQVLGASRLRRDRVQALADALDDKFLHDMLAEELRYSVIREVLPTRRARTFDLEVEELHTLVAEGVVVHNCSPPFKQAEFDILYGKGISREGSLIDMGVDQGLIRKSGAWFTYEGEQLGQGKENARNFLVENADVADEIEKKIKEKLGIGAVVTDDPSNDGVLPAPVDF
Briefly: Fluorescence Cell-Free Homogeneous Dose Retest to Identify Inhibitors of RecA-Intein Splicing Activity. [Related pubchem assays (depositor defined):AID2097, AID2223, AID489010, AID492950]. In kind it is functional.

In a further assay the target is Genome polyprotein (dengue virus type 2, UniProt P29990). Briefly: flavivirus cap methylation enzyme inhibition – biochemical, confirmation dose response, primary screen (AID 588689). In kind it is functional.
For assay [3], the target named is Peroxisome proliferator-activated receptor gamma/Nuclear receptor coactivator 2 (Homo sapiens, UniProt P37231). In kind it is functional.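 Further: agonist potency for raising coactivator recruitment to the receptor.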
Assay [4] deals with Peroxisome proliferator-activated receptor gamma/Nuclear receptor coactivator 1 (Homo sapiens, UniProt P37231). In kind it is functional.
Chain of Peroxisome proliferator-activated receptor gamma/Nuclear receptor coactivator 1 (P37231 whole entry): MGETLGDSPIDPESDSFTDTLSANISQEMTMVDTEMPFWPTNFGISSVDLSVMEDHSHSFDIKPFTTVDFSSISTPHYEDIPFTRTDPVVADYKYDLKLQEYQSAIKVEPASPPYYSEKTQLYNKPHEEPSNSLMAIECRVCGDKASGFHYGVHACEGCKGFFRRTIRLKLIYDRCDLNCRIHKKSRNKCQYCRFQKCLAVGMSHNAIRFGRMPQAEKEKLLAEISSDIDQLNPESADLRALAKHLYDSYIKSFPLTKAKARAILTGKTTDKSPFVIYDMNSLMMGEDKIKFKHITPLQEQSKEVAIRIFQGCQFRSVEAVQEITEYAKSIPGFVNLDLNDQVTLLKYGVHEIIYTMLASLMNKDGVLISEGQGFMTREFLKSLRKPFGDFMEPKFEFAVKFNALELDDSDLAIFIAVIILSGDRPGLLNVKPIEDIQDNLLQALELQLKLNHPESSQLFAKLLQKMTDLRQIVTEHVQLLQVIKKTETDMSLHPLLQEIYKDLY
Chain of Peroxisome proliferator-activated receptor gamma/Nuclear receptor coactivator 1 (Q15788 whole entry, further chain): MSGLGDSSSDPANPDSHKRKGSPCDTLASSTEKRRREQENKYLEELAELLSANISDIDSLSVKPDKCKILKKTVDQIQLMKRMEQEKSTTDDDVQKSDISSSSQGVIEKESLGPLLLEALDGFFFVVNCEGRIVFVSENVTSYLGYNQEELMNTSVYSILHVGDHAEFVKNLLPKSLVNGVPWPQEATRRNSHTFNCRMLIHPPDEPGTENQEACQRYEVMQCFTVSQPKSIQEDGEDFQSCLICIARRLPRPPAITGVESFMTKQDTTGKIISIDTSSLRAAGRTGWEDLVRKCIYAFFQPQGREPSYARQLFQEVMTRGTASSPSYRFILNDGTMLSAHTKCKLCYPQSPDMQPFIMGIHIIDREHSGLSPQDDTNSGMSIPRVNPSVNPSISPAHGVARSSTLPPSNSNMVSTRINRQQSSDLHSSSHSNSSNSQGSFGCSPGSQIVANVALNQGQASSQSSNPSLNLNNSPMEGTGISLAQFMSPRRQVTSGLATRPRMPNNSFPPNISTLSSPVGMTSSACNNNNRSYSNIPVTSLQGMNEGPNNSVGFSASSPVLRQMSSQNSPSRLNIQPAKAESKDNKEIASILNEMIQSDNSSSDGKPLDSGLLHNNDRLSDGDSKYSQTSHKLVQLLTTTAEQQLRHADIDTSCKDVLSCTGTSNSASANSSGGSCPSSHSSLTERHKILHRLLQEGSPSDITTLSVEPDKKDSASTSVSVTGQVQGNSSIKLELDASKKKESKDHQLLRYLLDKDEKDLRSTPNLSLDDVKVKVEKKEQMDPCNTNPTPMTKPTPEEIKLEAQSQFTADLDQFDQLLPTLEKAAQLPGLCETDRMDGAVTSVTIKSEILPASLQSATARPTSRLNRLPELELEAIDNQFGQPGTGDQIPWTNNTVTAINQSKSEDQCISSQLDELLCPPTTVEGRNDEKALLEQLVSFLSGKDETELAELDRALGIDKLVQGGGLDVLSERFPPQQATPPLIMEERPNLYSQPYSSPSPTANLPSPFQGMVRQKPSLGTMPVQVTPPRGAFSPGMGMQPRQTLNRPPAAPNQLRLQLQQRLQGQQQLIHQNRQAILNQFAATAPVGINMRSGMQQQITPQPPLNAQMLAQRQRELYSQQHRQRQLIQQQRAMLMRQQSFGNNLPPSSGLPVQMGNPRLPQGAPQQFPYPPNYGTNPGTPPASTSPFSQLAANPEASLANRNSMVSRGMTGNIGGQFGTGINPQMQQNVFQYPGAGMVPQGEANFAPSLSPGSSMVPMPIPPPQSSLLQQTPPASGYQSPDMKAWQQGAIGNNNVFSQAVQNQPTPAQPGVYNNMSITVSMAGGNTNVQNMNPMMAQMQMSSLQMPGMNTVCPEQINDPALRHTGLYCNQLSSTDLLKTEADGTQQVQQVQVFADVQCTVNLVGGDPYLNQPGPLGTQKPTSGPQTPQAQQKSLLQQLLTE
Assay [5] addresses Peroxisome proliferator-activated receptor gamma/Nuclear receptor coactivator 3 (Homo sapiens, UniProt P37231). In kind it is functional.
A short description of assay [6]: A Cell Based Secondary Assay To Explore Cytotoxicity of Compounds that Sensitize Mycobacterium Tuberculosis to Beta-Lactam Antibiotics. In kind it is functional.
The target of assay [7] is T4, Estrogen receptor beta (Homo sapiens, UniProt Q92731).
T4 sequence (Q92731 whole entry): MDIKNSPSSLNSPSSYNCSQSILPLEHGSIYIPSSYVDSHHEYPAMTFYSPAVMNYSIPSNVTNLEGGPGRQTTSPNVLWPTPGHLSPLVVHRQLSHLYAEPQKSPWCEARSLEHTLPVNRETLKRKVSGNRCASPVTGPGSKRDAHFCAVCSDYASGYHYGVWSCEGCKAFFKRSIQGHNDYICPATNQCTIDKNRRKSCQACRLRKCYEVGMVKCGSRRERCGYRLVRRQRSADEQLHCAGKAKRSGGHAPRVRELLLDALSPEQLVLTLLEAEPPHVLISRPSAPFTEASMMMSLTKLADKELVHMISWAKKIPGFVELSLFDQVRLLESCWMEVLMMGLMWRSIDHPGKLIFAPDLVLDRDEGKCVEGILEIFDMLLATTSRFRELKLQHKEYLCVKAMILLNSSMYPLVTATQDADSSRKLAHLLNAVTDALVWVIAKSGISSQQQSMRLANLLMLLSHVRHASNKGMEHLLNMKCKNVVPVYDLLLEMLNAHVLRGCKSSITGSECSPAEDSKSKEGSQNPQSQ
In assay [8] the target is T4, Estrogen receptor beta. Briefly: blockers of SRC-3 recruitment to ERβ – biochemical, ELISA, streptavidin-HRP readout, orthogonal assay, confirmation (AID 1060).
The target of assay [9] is T5, Sentrin-specific protease 8 (Homo sapiens, UniProt Q96LD8).
T5 sequence (Q96LD8 whole entry): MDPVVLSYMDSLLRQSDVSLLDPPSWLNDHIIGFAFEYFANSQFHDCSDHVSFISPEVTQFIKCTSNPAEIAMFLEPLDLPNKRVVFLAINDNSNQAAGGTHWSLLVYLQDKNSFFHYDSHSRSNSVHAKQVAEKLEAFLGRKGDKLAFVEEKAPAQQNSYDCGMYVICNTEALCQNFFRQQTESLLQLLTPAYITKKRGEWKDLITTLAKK
Description: inhibition of human SENP8 cleavage activity – biochemical, luminescence, SAR follow-up (AID 504501). In kind it is functional.

Another assay deals with T6, Caspase-3 (Homo sapiens, UniProt P42574).
T6 sequence (P42574 whole entry): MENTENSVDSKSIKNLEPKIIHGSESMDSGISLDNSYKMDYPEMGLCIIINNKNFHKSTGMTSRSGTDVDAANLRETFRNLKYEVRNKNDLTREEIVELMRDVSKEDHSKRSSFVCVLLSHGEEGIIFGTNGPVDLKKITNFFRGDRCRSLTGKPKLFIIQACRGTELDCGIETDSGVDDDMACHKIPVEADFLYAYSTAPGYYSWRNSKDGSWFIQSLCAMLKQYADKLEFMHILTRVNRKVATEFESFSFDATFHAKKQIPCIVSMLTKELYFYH
Briefly: SAR Analysis of small molecule inhibitors of Sentrin-specific proteases (SENPs) using a Caspase-3 Selectivity assay. [Related pubchem assays (depositor defined):AID2540, AID2599, AID434973, AID489001]. In kind it is functional.

Assay [10] addresses T7, Sentrin-specific protease 6 (Homo sapiens, UniProt Q9GZR1).
T7 sequence (Q9GZR1 whole entry): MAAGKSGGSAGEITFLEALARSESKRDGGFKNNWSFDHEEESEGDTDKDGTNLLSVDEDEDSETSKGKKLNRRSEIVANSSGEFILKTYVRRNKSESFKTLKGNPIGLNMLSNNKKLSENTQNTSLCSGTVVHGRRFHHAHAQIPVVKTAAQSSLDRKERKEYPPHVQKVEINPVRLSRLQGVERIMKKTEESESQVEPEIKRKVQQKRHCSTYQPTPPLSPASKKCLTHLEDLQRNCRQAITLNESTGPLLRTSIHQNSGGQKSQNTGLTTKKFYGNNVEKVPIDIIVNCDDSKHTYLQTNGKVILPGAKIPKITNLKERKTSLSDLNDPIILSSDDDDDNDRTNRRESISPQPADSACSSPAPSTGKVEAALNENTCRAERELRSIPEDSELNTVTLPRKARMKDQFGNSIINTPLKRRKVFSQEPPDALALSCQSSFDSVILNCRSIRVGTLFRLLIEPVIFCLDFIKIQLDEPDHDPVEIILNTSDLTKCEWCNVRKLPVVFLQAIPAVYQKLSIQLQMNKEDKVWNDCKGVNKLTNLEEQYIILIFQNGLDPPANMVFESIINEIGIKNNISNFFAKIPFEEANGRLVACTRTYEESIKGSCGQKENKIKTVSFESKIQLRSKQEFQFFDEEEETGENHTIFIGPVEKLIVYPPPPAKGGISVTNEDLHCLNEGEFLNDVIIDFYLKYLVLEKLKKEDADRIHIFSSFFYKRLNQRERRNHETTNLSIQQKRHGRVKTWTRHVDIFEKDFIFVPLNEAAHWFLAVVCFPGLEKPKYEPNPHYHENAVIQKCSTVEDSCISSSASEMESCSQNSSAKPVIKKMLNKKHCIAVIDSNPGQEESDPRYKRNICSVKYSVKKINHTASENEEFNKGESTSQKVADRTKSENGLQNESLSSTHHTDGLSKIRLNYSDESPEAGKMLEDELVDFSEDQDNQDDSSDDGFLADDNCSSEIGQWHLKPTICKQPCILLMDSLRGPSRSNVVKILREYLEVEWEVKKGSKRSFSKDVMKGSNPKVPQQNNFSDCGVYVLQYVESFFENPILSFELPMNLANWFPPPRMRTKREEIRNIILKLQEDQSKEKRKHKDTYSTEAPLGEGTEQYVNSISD
Briefly: SAR Analysis of small molecule inhibitors of Sentrin-specific protease 6 (SENP6) using a Luminescent assay. [Related pubchem assays (depositor defined):AID2582, AID2599]. In kind it is functional.

Assay [11] concerns the target T8, Sentrin-specific protease 7 (Homo sapiens, UniProt Q9BQF6).
T8 sequence (Q9BQF6 whole entry): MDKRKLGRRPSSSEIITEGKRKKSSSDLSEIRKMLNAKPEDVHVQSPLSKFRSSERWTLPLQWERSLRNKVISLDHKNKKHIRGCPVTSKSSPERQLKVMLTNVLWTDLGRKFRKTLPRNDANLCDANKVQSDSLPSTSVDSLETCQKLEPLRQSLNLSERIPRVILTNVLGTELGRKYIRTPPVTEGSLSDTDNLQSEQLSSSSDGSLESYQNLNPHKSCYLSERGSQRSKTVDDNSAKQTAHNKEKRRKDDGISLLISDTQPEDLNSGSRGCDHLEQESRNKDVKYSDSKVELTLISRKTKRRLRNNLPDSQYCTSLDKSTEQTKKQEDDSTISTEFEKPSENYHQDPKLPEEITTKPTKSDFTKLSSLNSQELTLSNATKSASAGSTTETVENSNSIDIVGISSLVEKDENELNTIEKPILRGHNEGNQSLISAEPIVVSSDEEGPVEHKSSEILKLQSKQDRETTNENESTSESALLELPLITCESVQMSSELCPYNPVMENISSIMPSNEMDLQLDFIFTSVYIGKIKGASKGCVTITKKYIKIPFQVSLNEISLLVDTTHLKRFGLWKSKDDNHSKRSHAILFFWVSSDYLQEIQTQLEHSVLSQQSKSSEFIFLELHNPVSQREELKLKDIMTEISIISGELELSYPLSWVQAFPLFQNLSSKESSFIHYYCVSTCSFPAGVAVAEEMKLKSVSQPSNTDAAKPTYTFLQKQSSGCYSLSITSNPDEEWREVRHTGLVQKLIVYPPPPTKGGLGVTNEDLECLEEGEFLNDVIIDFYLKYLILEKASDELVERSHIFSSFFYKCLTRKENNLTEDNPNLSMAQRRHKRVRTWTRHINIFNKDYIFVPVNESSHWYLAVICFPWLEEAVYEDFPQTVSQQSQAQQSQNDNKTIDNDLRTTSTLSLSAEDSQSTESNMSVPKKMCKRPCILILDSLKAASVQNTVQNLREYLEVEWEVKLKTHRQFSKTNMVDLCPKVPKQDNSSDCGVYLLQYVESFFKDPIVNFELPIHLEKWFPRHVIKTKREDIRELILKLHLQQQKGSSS
Description: inhibition of human SENP7 cleavage activity – biochemical, luminescence, SAR follow-up (AID 504497). In kind it is functional.

Chain of Peroxisome proliferator-activated receptor gamma/Nuclear receptor coactivator 3 (P37231 whole entry): as the sequence (P37231 whole entry) above
Chain of Peroxisome proliferator-activated receptor gamma/Nuclear receptor coactivator 3 (Q9Y6Q9 whole entry, further chain): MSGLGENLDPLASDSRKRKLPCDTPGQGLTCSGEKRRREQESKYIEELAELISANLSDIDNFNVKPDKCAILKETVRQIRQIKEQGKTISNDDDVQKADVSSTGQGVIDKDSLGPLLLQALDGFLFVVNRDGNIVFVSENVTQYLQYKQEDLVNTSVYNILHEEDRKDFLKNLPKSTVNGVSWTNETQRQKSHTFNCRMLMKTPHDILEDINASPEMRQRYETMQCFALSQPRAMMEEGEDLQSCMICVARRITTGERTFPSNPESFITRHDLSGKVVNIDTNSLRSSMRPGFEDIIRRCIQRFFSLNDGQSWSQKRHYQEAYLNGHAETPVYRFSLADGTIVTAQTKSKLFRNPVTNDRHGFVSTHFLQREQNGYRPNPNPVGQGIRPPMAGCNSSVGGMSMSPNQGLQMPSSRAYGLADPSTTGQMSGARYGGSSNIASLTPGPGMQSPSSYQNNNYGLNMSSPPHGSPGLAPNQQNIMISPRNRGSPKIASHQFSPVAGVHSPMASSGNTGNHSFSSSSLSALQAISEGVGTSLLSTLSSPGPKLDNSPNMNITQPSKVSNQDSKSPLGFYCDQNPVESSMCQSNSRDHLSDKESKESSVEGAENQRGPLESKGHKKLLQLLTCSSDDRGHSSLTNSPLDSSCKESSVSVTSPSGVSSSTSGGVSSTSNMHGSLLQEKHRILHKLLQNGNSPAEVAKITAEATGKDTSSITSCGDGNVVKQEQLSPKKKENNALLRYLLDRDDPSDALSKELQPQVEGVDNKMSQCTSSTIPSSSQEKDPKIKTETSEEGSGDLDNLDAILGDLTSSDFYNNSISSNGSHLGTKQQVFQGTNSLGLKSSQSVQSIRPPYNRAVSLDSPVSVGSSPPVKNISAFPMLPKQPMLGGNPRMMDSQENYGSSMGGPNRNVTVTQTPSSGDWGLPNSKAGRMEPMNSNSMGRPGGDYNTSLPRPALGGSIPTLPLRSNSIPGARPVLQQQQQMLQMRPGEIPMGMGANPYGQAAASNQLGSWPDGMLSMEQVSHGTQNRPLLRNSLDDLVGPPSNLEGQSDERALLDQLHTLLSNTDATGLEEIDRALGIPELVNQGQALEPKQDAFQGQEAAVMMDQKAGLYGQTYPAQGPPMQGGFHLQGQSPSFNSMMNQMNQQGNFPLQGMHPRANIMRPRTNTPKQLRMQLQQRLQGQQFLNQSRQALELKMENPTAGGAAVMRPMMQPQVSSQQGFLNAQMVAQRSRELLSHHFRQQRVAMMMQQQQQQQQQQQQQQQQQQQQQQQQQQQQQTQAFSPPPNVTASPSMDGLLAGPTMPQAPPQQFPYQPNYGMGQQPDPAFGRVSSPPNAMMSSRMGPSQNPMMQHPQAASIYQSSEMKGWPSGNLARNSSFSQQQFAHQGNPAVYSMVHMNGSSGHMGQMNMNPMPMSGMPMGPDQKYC

On to `O=C(O)CC1SC(N/N=C/c2ccc(-c3ccc(Cl)cc3[N+](=O)[O-])o2)=NC1=O` (stereo not drawn), for which the 50% inhibitory concentration (IC50) in assay [1] was > 50 µM (not active); at Genome polyprotein, 34.8 µM (active). Further, the AC50 in assay [2] is > 380 µM (inactive). For the same compound, the concentration giving a half-maximal response (EC50) at Protein RecA is 4.61 µM (active).
Regarding `O=S(=O)(Nc1cccc(C(F)(F)F)c1)c1cnc[nH]1`, the EC50 in [3], in [4] and in assay [5] was > 79.4 µM (not active) throughout.
With `CC1CC1C(=O)Nc1nc(-c2cccs2)c(-c2cccs2)s1` (stereo not drawn), in assay [6], the half-maximal cytotoxic concentration (CC50) was > 40 µM (active).
As for `COc1cc2c(cc1OC)C(Nc1ccc(S(N)(=O)=O)cc1)=NC(C)(C)C2`, the half-maximal effective concentration (EC50) in assay [3], in assay [4] and in assay [5] was > 79.4 µM (not active) in each case.
For `Cc1cc(C(=O)Nc2sc3c(c2C#N)CCC3)no1`, the IC50 on Estrogen receptor beta [7] was 11.5 µM (active); against Estrogen receptor beta [8] it was < 0.023 µM (not active); in [9], > 99 µM (inactive); at Caspase-3, 30.4 µM (active); in assay [10], > 99 µM (inactive); in assay [11], 52.7 µM (active).
For `Cc1ccc(-n2nnnc2Sc2nc([N+](=O)[O-])nn2C)cc1`, the CC50 in assay [6] was 16.5 µM (active).

As usually defined, the IC50 is the concentration that inhibits the measured activity by half. As a reminder, the AC50 is the concentration at which the activity in the assay is half-maximal. Usually EC50 stands for the concentration at which the effect is half-maximal. The term CC50 denotes the concentration at which the toxic effect on the cells reaches its halfway point.

Source of the values: ChEMBL document CHEMBL1201862, “PubChem BioAssay data set” (2004).
